This is an account of results in PubChem BioAssay AID434987 (Southern Research Specialized Biocontainment Screening …, 2010).

The assay has as its system M. tuberculosis H37Rv growth inhibition with meropenem. Put plainly: dose response, H37Rv, with and without meropenem (AID 434987).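 Also: growth over 7 days at 37 °C before Alamar Blue read on day 9.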
Where [1] appears, read: M. tuberculosis H37Rv growth inhibition, measured here: IC50 without meropenem.
The mark [2] stands for this setting: M. tuberculosis H37Rv growth inhibition, measured here: IC90 without meropenem.
[3] abbreviates: measured here: IC90 with meropenem.

Activity calls are given as the source filed them. No rule for the calls is given here. Where only a bound is given, the exact number is not on record here.

Take `CCN(CC)c1ccc(NC(=O)c2cc(Cl)ccc2OC)cc1`: the IC50 was 24.2 µM. The compound also had an IC50 under setting [1] above 100 µM. Further, the IC90 under setting [2] is above 100 µM. Moreover, the IC90 under setting [3] was above 100 µM.
As to `C/C(=N\NC(=O)c1ccccc1O)c1ccc(Br)s1`, the IC50 is > 100 µM (inactive). For the same compound, under setting [1], the IC50 is above 100 µM. This compound also yielded an IC90 under setting [2] above 100 µM. This compound also came in with an IC90 under setting [3] above 100 µM.
`Cc1cc(NC(=O)COc2nnc(-c3ccccc3)c3ccccc23)no1`: the IC50 is 14 µM. Moreover, the IC50 under setting [1] is above 100 µM. The same compound had an IC90 under setting [2] above 100 µM. Also, the IC90 under setting [3] was above 25 µM.
For `S=c1nccc(-c2ccc3c(c2)CCO3)[nH]1`, the IC50 is > 100 µM (inactive). Under setting [1], this compound gave an IC50 above 100 µM. Also, under setting [2], the IC90 was above 100 µM. Under setting [3], this compound displayed an IC90 above 100 µM.
Turning to `COc1ccc(CNC(=O)C2CCN(S(=O)(=O)c3c(C)noc3/C=C/N(C)C)CC2)cc1`, the IC50 is > 100 µM (inactive). The compound further yielded an IC50 under setting [1] above 100 µM. The compound also returned an IC90 under setting [2] above 100 µM. In addition, under setting [3], the IC90 was above 100 µM.
Take `CC1CCN(CCOc2ccc(OCc3ccccc3)cc2)CC1`: the IC50 is 74 µM (inactive). The same compound displayed an IC50 under setting [1] of 98.4 µM. The compound further returned an IC90 under setting [2] above 100 µM. The compound also showed an IC90 under setting [3] above 100 µM.
As for `CCC1(c2ccc(Cl)cc2)NC(=S)N(c2ccc(C)cc2)N1` (configuration not stated), the IC50 is > 100 µM (inactive). This compound also had an IC50 under setting [1] above 100 µM. This compound also gave an IC90 under setting [2] above 100 µM. The compound also showed an IC90 under setting [3] above 100 µM.
Regarding `CC(C)(C)c1nnc2sc(SCC(=O)c3cccs3)nn2c1=O`, the IC50 is 19.3 µM. The same compound came in with an IC50 under setting [1] above 100 µM. The compound also came in with an IC90 under setting [2] above 100 µM. Under setting [3], this compound yielded an IC90 above 100 µM.
As to `CCN(CC)CCCNC(=O)c1c(O)c2ccccc2n(Cc2ccccc2)c1=O`, the IC50 was 12.6 µM (inactive). This compound returned a half-inhibitory concentration (IC50) under setting [1] of 23.2 µM. Under setting [2], the IC90 turned out to be 32.7 µM. The compound further gave an IC90 under setting [3] of 13.8 µM.
For `CC(=O)COc1ccc2c3c(c(=O)oc2c1C)CCCCC3`, in that order: > 100 µM (inactive), above 100 µM, above 100 µM and above 100 µM.
For `Cc1cccc(NC(=O)Cn2c(=O)n(Cc3ccccc3)c(=O)c3c(C)c(C)sc32)c1`, in that order: > 100 µM (inactive), above 100 µM, above 100 µM and above 100 µM.
For `S=C(NNc1ccc2ccccc2c1)NC1CCCCC1`, in that order: 8.86 µM (inactive), 20.4 µM, 46.7 µM and 41.3 µM.
Consider `Cc1ccc(C)c(CSc2nnc(C)c(=O)n2N)c1`, for which the IC50 is 5.73 µM. The IC50 under setting [1] turned out to be 14.1 µM. For the same compound, the IC90 under setting [2] worked out at 39.5 µM. Under setting [3], this compound showed an IC90 of 20.4 µM.
On the same counts, the results for `O=C(CSCC(=O)Nc1ccccc1)N/N=C/c1c(O)ccc2ccccc12` are 31.9 µM, above 100 µM, above 100 µM and above 100 µM.
On the same counts, the results for `CC(OC(=O)c1ccc([N+](=O)[O-])o1)C(=O)NC1CCCCC1C` (configuration not stated) are 15.6 µM (inactive), 26.3 µM, 70.6 µM and above 100 µM.
For `CCN1C(=O)C(=Cc2ccc(N3CCOCC3)o2)C(=O)N(CC)C1=S`, in that order: > 100 µM (inactive), above 100 µM, above 100 µM and above 100 µM.
`Cc1c(C=O)c(C=O)c(C)n1Cc1ccccc1`: the IC50 was 31.9 µM (inactive). The same compound returned an IC50 under setting [1] of 52 µM. The same compound registered an IC90 under setting [2] above 100 µM. In addition, the IC90 under setting [3] came to 69.3 µM.
On the same counts, the results for `CCOc1ccc2nc(N3CCC(C(=O)NC4CCCCC4)CC3)sc2c1` are > 100 µM (inactive), above 100 µM, above 100 µM and above 100 µM.

For orientation: IC50 means the midpoint of a concentration-inhibition curve. As usually defined, the IC90 is the concentration at which the effect reaches the 90% level. High values mean weaker potency, low ones greater potency.
